The structures appear in SMILES notation. Bounds are passed on as bounds.

The compound `C[C@@H](N(CCOCc1ccccc1)C(=O)c1ccc(OCC(F)(F)C(F)F)cc1)[C@](O)(Cn1cncn1)c1ccc(Cl)cc1Cl` (relative stereo) gave a melting point of 51 to 62 °C.

The compound `Clc1ccccc1-c1cccc2c1OC(CNCC1CC1)CO2` (stereo not given) showed a melting point of 138 to 140 °C.

In turn, `CN1CC(CN2CC(=O)NC2=O)CC2c3cccc4c3c(cn4C)CC21` (stereo not given) gave a melting point of 292 to 294 °C.

`C1=C(c2cccc3ccccc23)CCN(Cc2ccccc2)C1` gave a melting point of 72 to 74 °C.

As for `CCOC(=O)C(NC(C)=O)=C(c1ccc(F)cc1)c1ccc(F)cc1`, the melting point lay within 200 to 201 °C.

`O=c1cc(-c2cccc(F)c2)oc(N2CCOCC2)c1` displayed a melting point of 169 to 170 °C.

`Cn1cnc2ccc(-c3nnc(CCc4cccc(F)c4)o3)cc21`: the melting point was 145 to 146 °C.

On to `COc1cc2c(cc1C(F)(F)F)N(C(=O)Nc1ccc(-c3ccccn3)s1)CC2`, for which the melting point was 205 to 215 °C.

Compound `CCCCCCCCCCCCCCCCCCOc1cccc(N(CC(=O)OC)CC(=O)OC)c1` showed a melting point of 75 to 77 °C.

`C=CCN(c1ccccc1CC(=O)N(C)C)c1c(Cl)cccc1Cl` registered a melting point of 110 to 114 °C.

`O=C1CCCN1CCCn1cnc2cnc3cc(-c4ccccc4)ccc3c21` came in with a melting point of 138 to 141 °C.

Compound `CNc1nc(C)c(-c2ccnc(Nc3cccc(S(=O)(=O)NCCO)c3)n2)s1` gave a melting point of 189 to 190 °C.

On to `CCOC(=O)c1cc(CCc2cc3c(s2)-n2c(C)nnc2CN=C3c2ccccc2Cl)ccc1CC(=O)O`, for which the melting point lay within 128 to 132 °C.

In turn, `Cc1nc2ccc3c(c2o1)OC(CO)CO3` (stereo not given) showed a melting point of 120 °C.

With `Cc1ccc2c(c1)oc1c(C(=O)NC3C4CC5CC(C4)CC3C5)nn(-c3ccc(Cl)cc3Cl)c12` (stereo not given), the melting point fell in the range of 209 to 211 °C.

On to `CC12CCC3C(CC(O)C4(O)CC=CCC34C)C1CC=C2Br` (stereo not given), for which the melting point lay within 170 to 175 °C.

`O=c1ccc2cnc(Nc3ccccn3)nc2n1C1CCCC1` yielded a melting point above 250 °C.

Regarding `O=C(O)C12C3C4C5C(C1C53[N+](=O)[O-])C42[N+](=O)[O-]` (stereo not given), the melting point was 187 °C.

As to `O=C(NN=Cc1ccc(Cl)cc1)c1[nH]c2ccccc2c1Cc1ccccc1`, the melting point was in the range of 221 to 222 °C.

Regarding `CCCC1CCc2c3c(c(F)c(F)c2O1)OC(C)C3` (stereo not given), the melting point was determined as 87 °C.

`O=C(CO)Cc1ccccc1` had a melting point of 42 to 43 °C.

With `O=C(O)c1ccc(C=CC(=O)N2CCc3c([nH]c4ccccc34)C2c2ccc3c(c2)CCO3)nc1` (stereo not given), the melting point was determined as 183 °C.

With `CC1CN(C(=O)OC(C)(C)C)CCC1(O)c1cc(C(F)(F)F)cc2ccoc12` (stereo not given), the melting point was in the range of 133 to 136 °C.

`N#Cc1cnc(-c2ccncc2)nc1N` showed a melting point of 253 to 255 °C.

Turning to `CN1CCN(c2cccc3c2C[C@H](NC(=O)CCCc2ccccc2)CC3)CC1`, the melting point is 137 to 139 °C.

In the case of `CCOC(=O)CN1c2ccccc2N(C)C(=O)c2cccnc21`, the melting point was in the range of 99 to 100 °C.

`COC(=O)c1cccc(S(=O)(=O)N(C)C)c1CS(=O)(=O)NC(=O)Nc1nc(OC)cc(OC)n1` gave a melting point of 175 to 180 °C.

With `CCCN(c1ncncc1C#N)n1ccc2ccccc21`, the melting point is 129 to 130 °C.

`COC(=O)C(Oc1ccc(C(C)(C)C)cc1)c1ccc(Sc2ccc(Cl)cc2)cc1` (stereo not given) gave a melting point of 106 to 108 °C.

For `CS(=O)(=O)c1ccc(-c2[nH]nc3c2-c2ccccc2CC3)cc1`, the melting point was 178 to 180 °C.

As for `CCCC(=O)C(=CNc1ccccc1COC(=O)c1ccccc1)C(=O)OCC`, the melting point fell in the range of 78 to 82 °C.

For the compound `CCNS(=O)(=O)c1cccc(NC(=O)c2cnn3c(C(F)F)cc(-c4ccc(C(F)(F)F)c(OCC)c4)nc23)c1`, the melting point was found to be 222 °C.

As for `Cc1cc(C(N)=O)ccc1N`, the melting point was determined as 124 °C.

`C=Cc1cn(-c2ccccn2)c2c1C(=O)CC(C)(C)C2` gave a melting point of 150 to 154 °C.

Consider `CCOC(Cc1ccc(OCc2nc(C(C)(C)C)oc2C)c(C)c1)C(=O)O` (stereo not given), for which the melting point fell in the range of 95 to 97 °C.

Regarding `O=C(OCc1ccccc1)c1ccc(O)c(O)c1`, the melting point lay in the range of 147 to 149 °C.

Compound `CC(C)(C)OC(=O)CN1CCN(c2ccnc(-c3nc(=O)c4ccccc4s3)c2)C1=O` displayed a melting point of 192 to 194 °C.

Compound `C=CCOc1ccc2ccc(NC(=O)c3ccc(OC)cc3)nc2n1` showed a melting point of 108 °C.

With `O=[N+]([O-])c1oc2ccc(CN3CCN(c4ccccc4)CC3)cc2c1-c1ccccc1`, the melting point lay in the range of 155 to 157 °C.

`COc1ccc(NC(=O)CN2C(=O)c3ccccc3C2=O)c(OC)c1COc1cccc2ccc(C)nc12` returned a melting point of 229 to 231 °C.

`Nc1nc2ccc(CCN3CCC(Oc4ccccc4)CC3)cc2s1` registered a melting point of 164 to 167 °C.

Turning to `COc1cc(OC)c(-c2cc3ccccc3[nH]2)cc1C=CC(=O)c1ccc(S(=O)(=O)NCCCn2ccnc2)cc1`, the melting point was in the range of 197 to 200 °C.

`CC(C)(C)c1cc(Nc2ccc(CCC(=O)O)cc2)cc(C(C)(C)C)c1O` displayed a melting point of 140 to 142 °C.

`CS(=O)c1ccc(-n2cnc3ccc(-c4nnc(N)o4)cc32)cc1` (stereo not given) returned a melting point of 290 to 291 °C.

The compound `N#Cc1ccc2c(c1)CCC1CC(=O)NN=C21` (stereo not given) gave a melting point of 292 to 295 °C.

Compound `OC[C@]1(c2ccccc2)O[C@H]1c1ccccc1` registered a melting point of 88 to 89 °C.

`Cc1cc(C)c(Nc2nc(C)nc(OC3CCOC3)c2C)c(C)c1` (stereo not given) displayed a melting point of 126 to 128 °C.

As for `Cc1oncc1C(=O)N1CCC(C)CC1`, the melting point was 44 to 45 °C.

`Cc1csc(N)c1S(=O)(=O)CC#N` gave a melting point of 88 to 90 °C.

`CN(Cc1ccccc1)c1ncnc2c(N3CCS(=O)CC3)nc(N3CCNCC3)nc12`: the melting point fell in the range of 214 to 215 °C.

The compound `CC(C)(C)CNc1cc(N2CCNCC2)nc(NC(C)(C)C)n1` came in with a melting point of 120 to 124 °C.

Consider `CCCc1nc2c(N)nc3ccccc3c2n1CCC(=O)N(C)C`, for which the melting point was in the range of 207 to 209 °C.

For `O=C(c1ccccc1)c1cnn2c1NCCC2c1ccncc1` (stereo not given), the melting point was 186 to 189 °C.

`CC(C)(C)c1cc(-c2ccc(C(=O)O)cc2)cc(C(C)(C)C)c1O` yielded a melting point above 240 °C.

Compound `Cc1ncc(C(O)=S)cc1OC(C)C` displayed a melting point of 154 to 155 °C.

`CC(C)N(CCC(c1cccs1)c1ccc(O)cc1O)C(C)C` (stereo not given): the melting point was 102 to 109 °C.

Turning to `Cc1cc(O)nc2c1c(C)nn2-c1ccccn1`, the melting point lay in the range of 254 to 255 °C.

Consider `Cc1ccc(Oc2ccc(-c3ccccc3)cc2)cc1`, for which the melting point was 97 to 99 °C.

`CCOC(=O)C1=C(c2ccc(OC)c(OC)c2)c2ccccc2C1=O` displayed a melting point of 130 °C.

`O=C(C=Cc1ccc(-c2ccc(O)cc2)cc1)NO` registered a melting point above 300 °C.

`FC(F)(F)c1nnc(Sc2ccc(Cl)c(Cl)c2)s1` displayed a melting point of 46 °C.

For the compound `COc1ccc(C(=O)C2CCN(C(C)=O)CC2)c(O)c1`, the melting point lay in the range of 138 to 140 °C.

`FC(F)(F)c1ccc(-c2cc(C3CC3)cc(Cl)n2)cc1` gave a melting point of 89 to 93 °C.

`COc1nc(C#N)c(C#N)n1C`: the melting point fell in the range of 192 to 194 °C.

With `NC(=O)c1c(Cl)c(-c2ccccc2)n2c1CN(S(=O)(=O)c1ccc(-c3ccccn3)s1)CC2`, the melting point is 222 to 224 °C.

`O=C(O)C(CCc1ccccc1)NC1CCc2ccccc2NC1=O` (stereo not given) displayed a melting point of 173 to 175 °C.

`CC(C)(C)OC(=O)N1CCN(c2cccc3c2c(Br)cn3S(=O)(=O)c2ccccc2)CC1` gave a melting point of 188 to 189 °C.

As to `Brc1cccc2nonc12`, the melting point is 92 to 94 °C.

`O=C(O)C(=O)c1ccc(OCCOC23CC4CC(CC(C4)C2)C3)cc1`: the melting point was in the range of 107 to 109 °C.

Turning to `Cc1ccc(NC(=O)c2cccc(N3CCOCC3)c2)cc1NC(=O)c1cccc(N(C)S(C)(=O)=O)c1`, the melting point is 208 to 209 °C.

The compound `C#CC[C@H](c1nc2cc(Cl)ccc2c(=O)n1Nc1ccccc1)N(CCCN)C(=O)c1cc(F)cc(F)c1F` returned a melting point of 168 to 170 °C.

On to `CC(C)(C)CC(C)(C)NC(=O)CCON(Cc1ccccc1)Cc1ccccc1`, for which the melting point was 96 to 98 °C.

Consider `CS(=O)(=O)c1ccc(-c2cnn(CC(F)(F)F)c(=O)c2OCC2CC2)cc1`, for which the melting point was in the range of 133 to 135 °C.

`COc1cccnc1CSCCNC(=C[N+](=O)[O-])SC` showed a melting point of 87.5 to 88.5 °C.

`CC(=O)Oc1ccc(C(=O)O)cc1C` returned a melting point of 169 to 171 °C.

As to `CCCSc1sc(C(=O)OCC)c2c1-c1nn(C)cc1CC2`, the melting point was 90 to 91 °C.

As for `CCCOc1cc([N+](=O)[O-])ccc1N`, the melting point was in the range of 59 to 61 °C.

For `CCN(CC)c1ccc(C2(c3c(C)n(CCOc4ccccc4)c4ccccc34)OC(=O)c3ccccc32)c(C)c1` (stereo not given), the melting point was 182 to 183 °C.

Compound `CS(=O)(=O)c1ccc(N2CC(O)(C(F)(F)F)N=C2c2ccncc2)cc1` (stereo not given) showed a melting point of 219 °C.

In the case of `O=C1NCCc2c(O)cccc21`, the melting point fell in the range of 195 to 198 °C.

`N=C(Nc1ccc([N+](=O)[O-])cc1)c1ccccc1` had a melting point of 240 to 241 °C.

In turn, `CCCCCCC(C)Oc1ccc(C(=O)O)cc1C#N` (stereo not given) displayed a melting point of 98.1 to 99.9 °C.

`O=c1oc2cc(OCc3nnn[nH]3)cc(OCc3nnn[nH]3)c2c2c1C(c1ccccc1)CCC2` (stereo not given) came in with a melting point of 153 to 154 °C.

Compound `Cc1ccc2nc(OCC(=O)NCCCN(C)Cc3ccc(Cl)c(Cl)c3)oc2c1` displayed a melting point of 62 to 66 °C.

With `CC(=O)Nc1ccc2c(c1)OCc1cc([N+](=O)[O-])ccc1C2=O`, the melting point stood at 171 °C.

The compound `COc1cc(C2CCCCC2)c(Cl)cc1CCO` showed a melting point of 78 to 79 °C.

In turn, `CCC1(C)OC1(C#N)C(=O)O` (stereo not given) showed a melting point of 139 to 140 °C.

As to `Oc1ccc(CCN2CCC(=C3c4sccc4CCn4ccnc43)CC2)cc1`, the melting point is above 200 °C.

Consider `Cc1nnc(C)n1NC(=N)c1ccc(Cl)cc1`, for which the melting point fell in the range of 303 to 306 °C.

In turn, `CC(C)(COc1ccccc1)C(=O)c1ccc(Br)cc1` showed a melting point of 73 to 74 °C.
